# Assay results taken from patent publication US20030186943A1, “Substituted gamma-phenyl-delta-lactams and uses related thereto” (Inflazyme Pharmaceuticals Ltd., priority 1998, published 2003).
# Values joined by “and” are separate entries in the source; they are usually repeats but may differ in a detail not shown here. Identical values can stand only once.
# What was measured:
# [1] = system: High Affinity Rolipram Binding Site of PDE4 in Mouse Brain; assay: Displacement of [3H]-rolipram from its high affinity binding site (HARBS); settings: ratio of IC50 for PDE4 catalytic activity to concentration displacing 50% of rolipram from HARBS
# [2] = system: tail skin allograft rejection (C57BL/6 donor, BALB/c recipient mice); assay: Murine tail skin allograft transplantation model; assay type: in vivo, mouse; settings: 10 mg/kg i.p. twice daily
# Protocol: Tail skin from donor H-2 b C57BL/6 mice was transplanted onto recipient female H-2^d BALB/c mice (Lagodzinski, Z. et al., Immunology 71:148-150 (1990)). Five mice were included per group. […] Test compounds and CsA were administered twice daily intraperitoneally at a dose of 10 mg/kg beginning at one day prior to transplantation and for 15 days after transplantation, including the day of transplantation. Mice were monitored and scored daily over 15 days post transplantation for graft rejection.
# Skin allograft rejection is primarily mediated by T lymphocytes with little evidence for a major role of antibodies under most circumstances. Skin allograft rejection requires the activation of helper and cytotoxic effector T cell populations. Graft rejection was assessed by monitoring allograft necrosis. Because tail skin is visibly distinct from the surrounding trunk skin of the mouse, the course of rejection can be easily monitored. Fully intact grafts were scored as 100%. Complete graft rejection was defined as >90% graft necrosis. Acute graft rejection generally proceeds via a series of visually obvious events beginning with swelling and erythema of the graft. These events are followed by graft desiccation and scab formation over most or all of the graft, signaling the loss of the viable graft tissue. Scab formation is subsequently followed by shrinkage and scar formation.
# [3] = system: IL-2 production in concanavalin A stimulated primary human CD4+ T-cells; assay: IL-2 production (Th1 profile) in concanavalin A stimulated primary human CD4+ T-cells; assay type: cell-based
# Description: (§1) The assay on the primary human T-cells involves their activation by concanavalin A (conA); (Sigma, Catalogue No. C 5275), followed by ELISA detection for cytokines for either profile. In the case of Th1-profiles, IL-2 and INF-γ are used as benchmarks while IL-10 is the indicator for a Th2-profile. Biologically, these indicators are useful in that IL-2 is the major T-cell mitogen while IL-10 represents a powerful yet selective immunosuppressive agent.
# (§2) Approximately 60 cc of whole human blood was collected into ACD anti-coagulant vacutainer tubes. 15 mL Ficoll Paque 1077 was aliquoted into 6 sterile 50 mL conical tubes. 10 mL of blood was slowly layered on top of the Ficoll Paque by holding the tube upright and resting the pipette tip at the inside edge of the tube and allowing the blood to slowly run down the side of the tube. Tubes were spun at 1700 rpm for 30 minutes at room temperature. The plasma layer above the leukocyte band was aspirated off and a pasteur pipette was used to lift off the leukocyte band and transfer it to a sterile 50 mL conical tube. Cells from each leukocyte gradiant tube were transferred to a separate 50 mL conical tube. Sterile PBS pH 7.4 was added to each 50 mL conical tube containing cells from leukocyte band to a volume of 50 mL. Tubes were spun at 1100 rpm for 10 minutes. Supernatant was aspirated off and the cells were resuspended in 50 mL PBS pH 7.4. Tubes were re-centrifuged at 1100 rpm for 10 minutes. Supernatant was aspirated off and the cells were resuspended in appropriate medium at a density of 5×10^7 cells/mL or 2×10^6 cells/mL.
# (§3) CD 4+T-cell Preparation: Cells from Leukocyte preparation were resuspended in sterile PBS pH 7.4 supplemented with 2-6% Fetal Bovine Serum (FBS) at a density of 5×10^7 cells/mL. Cells were then ready for isolation.
# (§4) 100 μL of antibody cocktail (Stem Cell Technologies, Catalogue No. 14062) was added for each mL of cells and mixed well. Cells+Ab cocktail was incubated on ice for 30 minutes. After 30 minute incubation, 60 μL of magnetic colloid was added for each mL of cells, and mixed well. Cells+Ab cocktail+magnetic colloid were incubated on ice for 30 minutes. After a final 30 minute incubation cells were ready for magnetic cell separation.
# (§5) Sample was loaded into the top of a column. The stopcock was turned to allow the flow of media down through the column, and the media was collected into a collection tube. PBS supplemented with 2-6% FBS was added to the column until three column volumes had been collected (not including the volume of the start sample). Cells were washed, counted, and resuspended in RPMI 1640 with 10% FBS+2 mM L-glutamine at a density of 1×10^6 cells/mL.
# (§6) CD4+ T-cells were isolated as described above. Cells were suspended in RPMI 1640 media (Stem Cell Technologies Inc.; Catalogue No. 36750) with 10% FBS+2 mM L-glutamine at a density of 1×10^6 cells/mL. Cells were maintained on ice as test compounds were prepared. Test compounds were prepared in a sterile 96-well assay plate at 50×the final desired test concentration, all wells contained an equal amount of dimethylsulfoxide vehicle. 500 μL of CD4^+ T-cells were added to each well of 24-well assay plate. 10 μL of each test compound working solution was added to the appropriate wells; two wells were left as stimulated and non-stimulated controls. 10 μL of concanavalin A (50×the final concentration) at 10 μg/mL was added to each well with the exception of the non-stimulated control wells. Cells were incubated at 37° C. for 48 hours. Conditioned media is then assessed by ELISA for the quantity of IL-2, […], TNFα and IL-10 present.
# (§7) Tables 5A, 5B and 5C represent a synopsis of data across individuals with respects to the potency of compounds of the invention in their ability to inhibit cytokines that are likely to promote or depress a Th1 or Th2 response. […]
# [4] = system: CD8+ T-cells; assay: CD8+ T-cell proliferation (2C-TCR transgenic); assay type: cell-based, mouse; settings: at 5 μM
# Description: 2C-TCR transgenic mice (Sha W. C. et al., Nature 335:271-274, 1988) were used to provide a source of naive antigen specific CD8+T cells. The 2C-T cell antigen receptor recognizes the 2C peptide derived from the mitochondrial alpha-ketoglutarate dehydrogenase enzyme in the context of the Db class I MHC molecule.
# To test the efficacy of a test compound in naive CD8+ T cell activation and proliferation, single cell suspensions of 2C lymph node (LN) T cells were isolated from 2C-TCR transgenic mice. 2C-T cells were stimulated with irradiated TAP−/− H-2d splenocytes or L^d transfected TAP−/− T2 cell line in the presence of varying concentrations of 2C peptide (0-10 uM). Proliferation was assessed by ^3H thymidine incorporation. Cell surface activation phenotype of T cells was performed by flow cytometric analysis
# [5] = system: Th1 cells; assay: Proliferation of differentiated Th1 CD4+ T cells; assay type: cell-based, mouse; settings: CD4+ T cells already differentiated into Th1 phenotype
# Protocol: The differentiation of naive CD4 T cells toward Th1 and Th2 lineages was performed as follows: 1×10^5 AND-lymph node T cells were cultured with […] B10.BR irradiated spleen cells in 2 ml of culture media with the following supplements: for Th1 cell differentiation, 100 U/mL IFNγ, 25U/mL IL2 and 10 ug/mL anti-IL4; for Th2 cell differentiation, 150 U/mL IL4, 25 U/mL IL2 and 10 ug/mL anti-IFNγ. After 3-4 days the wells were split 1:4 with the same additions. After 7 days the cells were harvested and washed 3 times to remove cytokines in the supernatents. 1×10^5 cultured cells were restimulated with 5×10^5 irradiated B10BR spleen cells +5 μM pcc peptide in 250 μl culture media without any added cytokines. The supernatents were harvested after 40 hrs and assessed for IL2, IL4 and IFNγ by ELISA. Test compounds were added throughout the differentiation of the culture.
# Cultured Th1 and Th2 cells generated in the absence of test compounds were tested for proliferation and cytokine activity as described above during antigen stimulation in the presence of compound.
# [6] = system: High Affinity Rolipram Binding Site of PDE4 in Mouse Brain; settings: values reported for second-generation PDE4 inhibitors; cited from earlier work
# [7] = system: TNBS-induced colitis in the rat; assay: TNBS-induced colitis model of inflammatory bowel disease in the rat;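 also: rat colitis induced by intracolonic TNBS in 50% ethanol, distal colon assessed at sacrifice on day 7, with saline-instilled vehicle-treated rats as controls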
# Protocol: Colitis was induced by intracolonic instillation of the hapten TNBS (60 mg/mL) in 0.5 mL of 50% ethanol. […] An additional group of rats received saline intracolonically in place of TNBS/ethanol and was treated with vehicle at the same times as outlined above. Body weights were recorded at the beginning of the study and at days 2 and 7.
# The rats were sacrificed on the 7th day after the induction of colitis and the extent of damage and inflammation was assessed. After the rats were sacrificed, the distal colon was removed and pinned out on a wax platform. The presence or absence of diarrhea was noted, as well as the presence and severity of adhesions between the colon and other organs, and the severity and extent of colonic damage. […] After scoring, a sample of colonic tissue was excised for measurement of myeloperoxidase activity as an index of granulocyte infiltration (see Wallace et al., Gastroenterology 117: in press, 1999; and Morris et al., Gastroenterology 96:795-803, 1989). This tissue sample was 1 cm long (along the axis of the colon) and 5 mm wide and was taken from a region of macroscopically visible damage (or the corresponding region in any rats in which there was no damage). The remainder of the tissue was fixed in neutral buffered formalin and processed by routine methods for subsequent evaluation by light microscopy. In a blinded manner, the sample of colonic tissue from each rat was examined for evidence of mucosal ulceration and inflammation. The percentage of the luminal surface of the section in which ulceration was present was calculated.
# [8] = system: TNBS-induced colitis in the rat; settings: dose reduced to 50 mg/kg; cited from earlier work
# [9] = system: IL-10 production in concanavalin A stimulated primary human CD4+ T-cells; assay: IL-10 production (Th2 profile) in concanavalin A stimulated primary human CD4+ T-cells; assay type: cell-based; settings: T-cell, 10 μg/mL Concanavalin A, 48 hours, X marks this range, read-out: IL-10 IC50 RANGE (μM) 0.02-0.2
# Description: as §1, §2, §3, §4, §5, §6, §7
# [10] = system: TNF-α production in concanavalin-A stimulated primary human CD4+ T-lymphocytes; assay: TNF-α production in Con-A stimulated human CD4+ T-cells (ELISA); assay type: cell-based; settings: T-lymphocyte, X marks this range, read-out: TNF-alpha IC50 RANGE (μM) <2
# Protocol: Activated T-lymphocytes are known to produce TNF-α and may constitute a significant source of this important inflammatory mediator in localized regions of inflammation such as the rheumatoid synovium or psoriatic lesions. Supernatants from cona-stimulated primary human CD4+ T-cells that had been incubated in the presence or absence of a test compound were analyzed for TNF-α using an ELISA system. (Pharingen; recommended anti-TNF antibody set 18631-D and 18642-D). Substantial quantities of TNF-α were induced in vehicle treated T-cells stimulated with conA. […] This may be due to the differing sensitivity of monocyte/macrophages versus T-lymphocytes to elevations in intracellular cAMP with respect to regulatory pathways impacting TNF-α production.
# as §2, §3, §4, §5, §6
# [11] = system: K562 chronic myelogenous leukemia cells; assay: Anti-proliferative activity in K562 cells (3H-thymidine uptake); assay type: cell-based, human; settings: Homo sapiens; K562, 48 hours, 3H-thymidine; X marks this range; read-out: IC50 range (μM) >50
# Protocol: 90 μL K562 cells (human chronic myelogenous leukemia cells) were seeded into sterile 96-well assay plates at a density of 1×10^5 cells/mL in RPMI 1640 supplemented with 10% FBS/2 mM L-glutamine. Samples to be tested were prepared in a sterile 96-well assay plate at 10×the final concentration desired. All sample dilutions contained equal amounts of DMSO to compensate for the % DMSO in the highest sample concentration used. Nine concentrations of test compound were examined for effects on growth up to a maximal concentration of 100 μM. 10 μL of the samples and controls (DMSO/normal growth control) were added to the aliquoted cells. The cells were incubated at 37° C./5% CO2 for 48 hours. Following 48 hour incubation, 20 μL of 3H-thymidine was added to each well for a final concentration of 1 μCi/mL. The cells were then incubated at 37° C./5% CO2 for 4 to 6 hours. Following 4-6 hour thymidine pulse, plates were wrapped in plastic and frozen in a −20° C. frost-free freezer overnight. Cells were harvested and ^3H-thymidine counts determined. In order to distinguish between cytotoxicity and cytostatic activity, growth curves were prepared where the average CPM value of the seeding density of cells was plotted on the same curve as the average CPM value for the maximum proliferation attained after 48 hours (DMSO growth control cells). The cells were diluted 1:2 for a concentration range of 7.8×10^3 cells/mL to 2×10^6 cells/mL. 90 μL of each cell dilution was seeded in sterile 96-well assay plated and allowed to equilibrate for approximately 4 hours at 37° C./5% CO2 prior to ^3H-thymidine pulse. The data in Table 15 was obtained as described above, and more specifically, K562 cells were seeded into 96-well plates at 1×10^5 cells/mL in RPMI 1640 supplemented with 10% FBS/2 mM L-glutamine. Various concentrations of test compound or vehicle (DMSO) was added and the cells were incubated at 37° C./5 CO2 for 48 hours. The cells were then pulsed at 37° C./5% CO2 for 4 to 6 hours with 1 μCi/mL ^3H-thymidine. Radioactivity incorporated into DNA was determined after harvesting onto glass fiber filters and scintillation counting.
# [12] = system: IFN-gamma production in concanavalin A stimulated primary human CD4+ T-cells; assay: IFN-gamma production (Th1 profile) in concanavalin A stimulated primary human CD4+ T-cells; assay type: cell-based; settings: T-cell, 10 μg/mL Concanavalin A, 48 hours, X marks this range, read-out: INF-GAMMA IC50 RANGE (μM) 0.2-2.0
# Description: as §1, §2, §3, §4, §5, §6, §7
# [13] = 100 mg/kg intracolonically at 12 h intervals for one week
# [14] = 100 mg/kg intracolonically at 12 h intervals for one week, day 7
compound,measurement,setting,value
COc1ccc([C@H]2COC(=O)C(Cc3ccc(OC4CCCC4)c(OC)c3)C2)cc1OC (some centres unmarked) [Compound 136],PDE4:HARBS,[1],<1
same,Average graft survival,[2]; from one day prior to and for 15 days after transplantation,15.4 days and 15.4 ± 1.3 days
same,Allograft survival rate (% at 9 days post-transplant),[2]; 9 days post-transplant,100%
same,# grafts surviving beyond 16 days p.t.,[2]; five mice per group,3
same,Th1 versus Th2 cytokine profile,[3]; conA stimulated CD4+ selected cells,selective inhibition of a Th1 profile
same,inhibition of CD8+ T-cell proliferation,[4],approx. 40%
same,inhibition of Th1 cells,[5],approx. 30%
COc1ccc([C@]2(C#N)CC[C@@H](C(=O)O)CC2)cc1OC1CCCC1 [SB 207499],ratio of IC50's for PDE4catalytic to PDE4HARBS (reported),[6],1
COc1ccc(C(=O)Nc2c(Cl)cncc2Cl)cc1OC1CCCC1 [RP 73401],ratio of IC50's for PDE4catalytic to PDE4HARBS (reported),[6],3
Nc1ccc(O)c(C(=O)OCCCCO[N+](=O)[O-])c1 [NCX-456],Body Weight Change (%),[7]; [13],−5.7 ± 0.3%
same,Mortality,[7]; [13],1/8
same,Adhesion (Incidence),[7]; [14],(2/7)^ζ
same,Adhesion Score,[7]; [14],0.4 ± 0.3
same,Bowel Thickness (mm),[7]; [14],2.02 ± 0.42 mm
same,Damage Score,[7]; [14],3.7 ± 0.9
same,Global Colitis Score,[7]; [14],6.60 ± 1.67
same,reduction in the colonic damage score,"[7]; 100 mg/kg, one week",50%
same,MPO Activity (U/mg),"[7]; colonic tissue, 100 mg/kg intracolonically at 12 h intervals for one week, day 7",57.8 ± 11.6 U/mg
same,Diarrhea,"[7]; incidence, 100 mg/kg intracolonically at 12 h intervals for one week, day 7",3/7
same,Histology Score,"[7]; percentage of luminal surface ulcerated, 100 mg/kg intracolonically for one week, day 7",46.4 ± 4.1
same,therapeutic effects in TNBS model at reduced dose,[8],lost
"COc1cc(-c2ccc(=O)[nH]n2)ccc1OC(F)F [Zardaverine, reference compound]",IC50,[9],0.02 to 0.2 µM
same,IC50,[10],< 2 µM
same,IC50,[11],> 50 µM
same,IC50,"[3]; Homo sapiens, T-cell, 10 μg/mL Concanavalin A, 48 hours, X marks this range, read-out: IL-2 IC50 RANGE (μM) 0.2-2.0",0.2 to 2 µM
same,IC50,[12],0.2 to 2 µM
